Some test systems named below: SNB-75; OVCAR-3; EKVX; COLO 205; U-251; Hs-578T; IGROV-1; TK-10; OVCAR-8; A549; MCF7; NCI-H522; MDA-N; PC-3; Malme-3M; 786-0; SF-539; NCI-H226; HT-29; SR.
What all share (assay): growth of human tumour cells (NCI), 48 h

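Results reflect a 48-hour exposure of cells in 96-well plates to compound at five concentrations. Abbreviation: GI50, concentration required for 50% inhibition of growth.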 Calls of active or inactive are those of the source. No stated cut-off is given here; in the data, active = GI50 up to about 1.1 µM and inactive = higher.

In the case of `COc1cc2c(cc1OC)[C@H](C)N1CCc3cc(OC)c(OC)cc3[C@@H]1C2`, the GI50 in the test on SNB-75, in the test on OVCAR-3, in the test with EKVX, in the test with COLO 205, in the test on U-251 and in the test on Hs-578T was > 100 µM (inactive) throughout. Moreover, the GI50 in the test on IGROV-1, with TK-10, in the test with OVCAR-8, in the test with A549, with MCF7 and in the test on NCI-H522 was > 100 µM (inactive) in each case. Further, the GI50 in the test on MDA-N, with PC-3, with Malme-3M, in the test with 786-0, in the test on SF-539 and in the test with NCI-H226 was > 100 µM (inactive) throughout. Moreover, the GI50 with HT-29 is > 100 µM (inactive).
As for `CC(C)c1c(O)c(O)c2c(c1O)C(=O)C(O)=C1C(C)(C)CCC[C@@]12C`, the GI50 in the test on SNB-75 is 3.05 µM (inactive); in the test on SR it was 4.05 µM (inactive); in the test on OVCAR-3, 3.13 µM (inactive); in the test on EKVX, 2.9 µM (inactive); in the test with COLO 205 it was 1.97 µM (inactive); in the test with U-251, 2.77 µM (inactive). Besides, the GI50 in the test on Hs-578T is 4.31 µM (inactive); in the test with IGROV-1, 3.73 µM (inactive); in the test on TK-10, 3.86 µM (inactive); in the test on OVCAR-8, 2.71 µM (inactive); in the test with A549 it was 3.6 µM (inactive); in the test on MCF7, 3.13 µM (inactive). The GI50 in the test on NCI-H522 is 3.56 µM (inactive); in the test with PC-3, 2.64 µM (inactive); with Malme-3M it was 3.88 µM (inactive); in the test on 786-0, 3.44 µM (inactive); with SF-539 it was 3.59 µM (inactive); in the test on NCI-H226, 3.01 µM (inactive). In addition, the GI50 with HT-29 was 2.94 µM (inactive).
For the compound `CC(O)c1cc2c(s1)C(=O)c1c(C(C)O)csc1C2=O` (configuration not stated), the GI50 with SNB-75 is 0.316 µM (active); with OVCAR-3, 0.0342 µM (active); with EKVX, 0.364 µM (active); with COLO 205, 1.28 µM (inactive); in the test with U-251 it was 0.316 µM (active); with Hs-578T, 0.318 µM (active). Besides, the GI50 in the test on IGROV-1 is 0.152 µM (active); with TK-10, 0.544 µM (active); in the test on OVCAR-8 it was 0.22 µM (active); with A549, 0.184 µM (active); in the test on MCF7, 0.0573 µM (active); in the test with NCI-H522, 0.305 µM (active). In addition, the GI50 in the test with MDA-N was 0.0226 µM (active); with PC-3, 0.117 µM (active); in the test with Malme-3M it was 0.0329 µM (active); with 786-0, 0.392 µM (active); with SF-539, 0.21 µM (active); in the test on NCI-H226, 0.264 µM (active). Moreover, the GI50 with HT-29 is 0.586 µM (active).
Regarding `O=C(O)COCC(=O)N(CCOCCN(Cc1ccccc1)C(=O)COCC(=O)O)Cc1ccccc1`, the GI50 in the test with SR, in the test with OVCAR-3, with EKVX, in the test on COLO 205, with U-251 and with Hs-578T was > 100 µM (inactive) in each case. The GI50 with IGROV-1, in the test on TK-10, in the test on OVCAR-8, in the test with A549, in the test on MCF7 and with NCI-H522 was > 100 µM (inactive) each time. Further, the GI50 in the test with MDA-N, with PC-3, with Malme-3M, in the test on 786-0, with SF-539 and in the test on NCI-H226 was > 100 µM (inactive) in each case. Further, the GI50 in the test with HT-29 is > 100 µM (inactive).
Consider `C/C(=N\Nc1nc2ccccc2n1C)c1cc2ccccc2cn1`, for which the GI50 in the test on SNB-75 was 1.14 µM (inactive); in the test on SR it was < 0.0169 µM (active); in the test with EKVX, < 0.0111 µM (active); with COLO 205, < 0.01 µM (active); with U-251, < 0.0275 µM (active); in the test on Hs-578T, 0.0933 µM (active). The GI50 is < 0.0128 µM (active) with IGROV-1; < 0.0182 µM (active) in the test on OVCAR-8; 0.0327 µM (active) in the test on A549; < 0.01 µM (active) in the test with MCF7; < 0.01 µM (active) with NCI-H522; 0.176 µM (active) in the test on MDA-N. Besides, the GI50 in the test with Malme-3M was < 0.01 µM (active); with 786-0, < 0.0173 µM (active); with SF-539, 0.441 µM (active); in the test on NCI-H226, 0.0448 µM (active); in the test with HT-29, < 0.0118 µM (active).
As for `CC(=O)O[C@H]1/C(=C/c2ccc(N(C)C)cc2)C[C@H]2[C@@H]3CC=C4C[C@@H](N5CCCC5)CC[C@]4(C)[C@H]3CC[C@]12C`, the GI50 with SNB-75 is > 100 µM (inactive); with SR, 40 µM (inactive); in the test on OVCAR-3, > 100 µM (inactive); in the test on EKVX, > 100 µM (inactive); in the test on COLO 205 it was > 100 µM (inactive); with U-251 it was > 100 µM (inactive). Also, the GI50 in the test with Hs-578T, in the test on IGROV-1, in the test with TK-10, with OVCAR-8, in the test with A549 and in the test on MCF7 was > 100 µM (inactive) throughout. Further, the GI50 in the test on PC-3 is > 100 µM (inactive); in the test with Malme-3M it was > 100 µM (inactive); in the test with 786-0 it was > 100 µM (inactive); in the test on SF-539, > 100 µM (inactive); in the test on NCI-H226 it was > 100 µM (inactive); with HT-29, 63.2 µM (inactive).
In the case of `Clc1ccc(OCc2nnc(CCCCCCCCc3nnc(COc4ccc(Cl)cc4)n3Nc3ccccc3)n2Nc2ccccc2)cc1`, the GI50 with SNB-75 is 52.4 µM (inactive); with OVCAR-3, 14.2 µM (inactive); with EKVX it was 12.9 µM (inactive); in the test on COLO 205, 0.318 µM (active); with U-251 it was 23.5 µM (inactive); in the test on Hs-578T, 22.9 µM (inactive). For the same compound, the GI50 was 7.23 µM (inactive) with IGROV-1; 23.7 µM (inactive) in the test with TK-10; 30.4 µM (inactive) in the test on OVCAR-8; 1.19 µM (inactive) in the test with A549; 3.75 µM (inactive) in the test on MCF7; 2.82 µM (inactive) with NCI-H522. Besides, the GI50 is 1.6 µM (inactive) in the test with MDA-N; 1.44 µM (inactive) in the test with PC-3; 12.5 µM (inactive) in the test with Malme-3M; 15.3 µM (inactive) in the test on 786-0; 0.962 µM (active) in the test on SF-539; 9.62 µM (inactive) with NCI-H226. Further, the GI50 in the test with HT-29 was 5.24 µM (inactive).
As for `C[N+](C)(C)CCOP(=O)([O-])OCCNC(=O)c1ccc2ccccc2c1`, the GI50 in the test on SNB-75, in the test on SR, with OVCAR-3, with EKVX, in the test on COLO 205 and in the test on U-251 was > 100 µM (inactive) throughout. Moreover, the GI50 in the test on IGROV-1, with TK-10, in the test with OVCAR-8, in the test with A549, in the test on MCF7 and with NCI-H522 was > 100 µM (inactive) each time. Also, the GI50 with MDA-N, with PC-3, in the test on Malme-3M, in the test on 786-0, with SF-539 and in the test with NCI-H226 was > 100 µM (inactive) in each case. Further, in the test on HT-29, the GI50 is > 100 µM (inactive).
As to `C/C(=N\NC1=NCCN1)c1cn(C2=NCCN2)nc1C`, the GI50 was 77.6 µM (inactive) in the test with SNB-75; > 100 µM (inactive) in the test on OVCAR-3; > 100 µM (inactive) in the test with EKVX; > 100 µM (inactive) in the test on COLO 205; > 100 µM (inactive) in the test on U-251; > 100 µM (inactive) in the test with Hs-578T. Further, the GI50 with IGROV-1, with TK-10, with OVCAR-8, in the test with A549, in the test on MCF7 and with NCI-H522 was > 100 µM (inactive) in each case. In addition, the GI50 in the test on MDA-N, in the test with PC-3, with Malme-3M, in the test on 786-0, with SF-539 and in the test on NCI-H226 was > 100 µM (inactive) in each case. Further, the GI50 with HT-29 was > 100 µM (inactive).
Regarding `COC(=O)[C@@H](NC(=O)c1ccc(CNC(=O)/C(C)=C/c2ccccc2)cc1)C(C)C`, the GI50 in the test on SNB-75 was > 100 µM (inactive); with SR, > 100 µM (inactive); with OVCAR-3 it was 27.4 µM (inactive); in the test on EKVX it was 35.4 µM (inactive); in the test with COLO 205, 67.9 µM (inactive); with U-251, > 100 µM (inactive). The GI50 in the test with IGROV-1 was > 100 µM (inactive); in the test with TK-10, > 100 µM (inactive); with OVCAR-8, > 100 µM (inactive); with A549, > 100 µM (inactive); in the test on MCF7, 42.2 µM (inactive); in the test with NCI-H522 it was 83.9 µM (inactive). The GI50 in the test on MDA-N is 66.5 µM (inactive); in the test with PC-3, > 100 µM (inactive); in the test on Malme-3M, > 100 µM (inactive); in the test with 786-0 it was > 100 µM (inactive); in the test with SF-539, > 100 µM (inactive); in the test with NCI-H226 it was > 100 µM (inactive). The GI50 in the test with HT-29 is > 100 µM (inactive).
